Values joined by “and” are separate entries in the source; they are usually repeats but may differ in a detail not shown here. Equal entries are not always repeated. “Also recorded” adds a separate entry of the source. Structures can show the parent of a compound that is named as a salt. Where two headings read alike, the source gives them in different places.
Columns and labels:
[1] = test system: K. pneumoniae K66-45 (NDM-1); assay: Microbroth dilution MIC of carbapenem with/without inhibitor; format: cell-based; settings: K. pneumoniae NDM-1
Method: • Plate bacterial strain(s) on appropriate media: • Gram-negative bacteria with ESBLs or carbapenemases: green agar plates with 100 mg/L ampicillin • Gram-negative bacteria without β-lactamases: green agar plates • Gram-positive bacteria (Staphylococci and Enterococci): blood agar plates • Incubate o.n. at 37° C.
(Should be used within 15 min of preparation). • Dilute the 0.5 McFarland suspension 1:100 into MH broth. […] Plate 10 μl of the dilution on MH agar plates (×2). Incubate o.n. at 37° C., count the colonies and calculate the final CFU/ml inoculum in the plate by multiplying the average number of colonies with 10000 and divide by 2. The final inoculum should be between 3-7×10^5 CFU/ml. • Add 50 μl of the prepared bacterial suspension to each well in the microtiter plate except negative growth control.
• Calculate the desired concentration-range and volume of the compounds/antibiotics in the assay. […] Dilute the stock solution in MH broth. Make subsequent 2-fold dilutions in MH broth of the desired concentrations if a concentration range is to be tested (remember the extra dilution factor in the assay plate). Always include extra volume for pipetting. Take into consideration stock solutions that are made in buffers that have an effect on bacterial growth (e.g. DMSO).

VIM-2 = VIM-2 (Escherichia coli, UniProt Q5U7L7); format: biochemical
Method: The eluent used was Chelex-treated HEPES 50 mM buffer, pH 7.5. […] In all experiments, 16 aliquots of 250 μL were taken from the PD-10 column runsout and enzyme activity was analysed. Enzyme activity was measured by adding Nitrocefin as a reporter substrate (final concentration of 50 μM).
To investigate if more extreme time-dependent and concentration-dependent conditions could restore enzyme activity, aliquots having final concentrations of 30 nM column-treated enzyme and 1000 μM Zn^2+ on ice and at room temperature over prolonged time.

[2] = test system: P. stuartii harboring an MBL; assay: MIC of meropenem on strains harboring an MBL (Example 198); format: cell-based; settings: P. stuartii (NDM)
rH glyoxylase II = rH glyoxylase II (Homo sapiens, UniProt Q16775); assay: Interaction with zinc-containing human enzyme; format: biochemical; settings: 62.5-500 μM, 30 min, 25° C., 0.4 ng/μL enzyme
Method: The initial reaction velocity was measured at 405 nm. EDTA was included as a representative example of the APC chelator class described above.

[3] = test system: resistant gram-negative MBL-based bacteria; assay: MICx: lowest adjuvant concentration giving carbapenem MIC ≤2 mg/L; format: cell-based; settings: 25 mg/L Example 26; K66-45 and K34-7; meropenem and doripenem
[4] = test system: human serum albumin and α1-acid glycoprotein (AGP); settings: 500 μM Example 26; HSA:AGP 24:1 up to 140 μM
Method: Enzymes in the kit are immobilized at a solid phase. […] Buffer without inhibitor was included as a control. After incubation, the suspensions were centrifuged and diluted 1:10 in 50 mM HEPES buffer pH 7.5 supplemented with 1 μM zinc^2+ and VIM-2 (final concentration 1 nM).

[5] = test system: Klebsiella pneumoniae strain 50752501 harbouring NDM-1; assay: In vivo infection study in neutropenic mice; design: species or system Klebsiella pneumoniae; host NMRI mice; settings: for Score at sampling: sampling T = 5 h; for lower CFU levels compared to vehicle treatment: combination Example 26 (10-100 mg/kg) and meropenem 33 mg/kg
Method: The purpose of this study was to investigate the synergy between a typical example of the present invention and a state of art carbapenem in a clinically relevant multiresistant Gram-negative bacterial strain harboring a metallo-β-lactamase in the treatment of live mice infected with the bacterial strain.
The mice were rendered neutropenic by injecting 0.5 ml cyclophosphamide solution intraperitoneally 4 days (approximately 200 mg/kg) and 1 day (approximately 100 mg/kg) prior to inoculation.
Fresh overnight colonies from a 5% Horse Blood Agar plate were suspended and diluted in sterile saline to approximately and 10^7 CFU/ml. Mice were inoculated intraperitoneally with 0.5 ml of the suspension. Approximately ½ hr prior to inoculation, mice were treated orally with 45 μl neurophen (20 mg ibuprofen/ml corresponding to approximately 30 mg/kg) as a pain relief.
Mice were treated subcutaneously in the neck region with.
Colony counts were determined from blood and peritoneal fluid at 1 and 5 hrs post inoculation. […] The mice were sacrificed immediately after blood sampling and a total of 2 ml sterile saline was injected i.p. and the abdomen gently massaged before it was opened and fluid sampled with a pipette. Each sample was then 10 fold serial diluted in saline and 20-μl spots, ranging from undiluted to a 10^6 dilution, were applied on agar plates in duplicates. […] All agar plates were incubated 18-22 hrs at 35° C. in ambient air.

[6] = Solution stability measured indirectly by MIC studies; format: physicochemical; settings: stored up to 8 months at 2-8° C.; 25 mg/L inhibitor; P. aeruginosa VIM-2 and K. pneumonia NDM-1
Source text: P. aeruginosa harboring VIM-2 and K. pneumonia bearing NDM-1 was used as two indicator strains.

[7] = test system: strains producing Klebsiella pneumoniae carbapenemases (KPC); assay: Adjuvant activity with a carbapenem against KPC producers; format: cell-based; settings: adjuvant together with a carbapenem
[8] = test system: meropenem-resistant E. coli; assay: Checkerboard MIC assay of Example 26 and meropenem; format: cell-based; settings: for some of the E. coli / K. pneumonia strains
Method: A checkerboard MIC assay was using the broth dilution method according to CLSI guidelines. […] Dilutions to 4 mg/ml was performed by adding+4.75 ml sterile saline to 0.25 ml of the stock solution, and dilutions to 512 μg/ml was performed by adding 10.9 ml MH-broth to the 4 mg/ml solution. Inoculums of bacterial strains as described in Table 4 were prepared by suspending fresh overnight colonies from 5% horse blood agar were to a turbidity of 0.5 McFarland and further diluted to 1×10^6 CFU/ml in MH-broth. Aliquots of 50 μl of MH-broth were added to each well of polystyrene microtiter plates. […] The plates were incubated at 35° C., 16-20 hours.

[9] = test system: resistant clinical isolate of Klebsiella pneumoniae harboring NDM-1; assay: Time-kill study with meropenem; format: cell-based; settings: Example 26 + 4 mg/L meropenem, irrespective of Example 26 concentration; stays below LOD for 30 hrs
Method: Mueller-Hinton broth (MHB) was warmed from fridge temperature cold. […] A sample of Example 26 was dissolved in DMSO.
The 96-well plates were prepared using a multi-channel pipette, adding […] PBS to columns 2-9, or the required number of dilutions needed in the experiment. Each Inoculum was prepared by picking a single colony from the fresh plate that was disperged into 1 mL MHB, the loop was agitated to ensure all the colony comes off the loop. The tube was Vortex mixed, and a 100 μL aliquot was taken from the tube into 9.9 mL of MHB into the media bottle. […] The procedure was repeated for as many samples needed in the study. Aliquots of 5 mL inoculum were transferred to as many media bottles as needed, e.g. 4 mg/L MEM, 4 mg/L MEM+50 μM test substance, 4 mg/L MEM+100 μM test substance. Then […] aliquots were taken from each culture and added to Column 1 on the 96 well plate, e.g. culture 1: 50 μl into A1, […] into B1 etc. for time point 0 h. Then […] MEM was added into each bottle, followed by the required amount of test substance. The bottles were mixed gently to avoid formation of bubbles, and incubated in a secondary container at 37° C. at 180 rpm. Finally, serial dilutions were performed using multi-channel pipette taking 30 μL for column 1, adding to column 2, mixing well, repeating from column 2 to 3 with clean pipette tips.

[10] = test system: K. pneumoniae harboring an MBL; assay: MIC of meropenem on strains harboring an MBL (Example 198); format: cell-based; settings: K. pneumoniae (NDM); each table line a different strain
[11] = test system: C. freundii harboring an MBL; assay: as above; format: cell-based; settings: C. freundii (NDM)
K. pneumoniae K66-45 = format: cell-based; settings: inhibitor 25 mg/L
Method: After plating and grown overnight at 37° C., only single colonies, ignoring any touching the edges of the plate, were counted.
10^9 CFU K66-45 (Mueller-Hinton broth, no selection) was plated and grown overnight, 37° C. Only single colonies, ignoring any touching the edges of the plate, were counted.

CN(C[C@H](O)[C@@H](O)[C@H](O)[C@H](O)CO)C(=O)c1ccc(CN(Cc2ccccn2)Cc2ccccn2)nc1 [Example 26, 6-((bis(pyridin-2-ylmethyl)amino)methyl)-N-methyl-N-((2S,3R,4R,5R)-2,3,4,5,6-pentahydroxyhexyl)nicotinamide]
MIC Value in K66-45 (MIC of carbapenem) ([1]; doripenem (DOR) + 25 mg/L Example 26, batches 1-3): 0.25 µg/mL and 0.125 µg/mL | MIC Value in K66-45 (MIC of carbapenem) ([1]; meropenem (MEM) + 25 mg/L Example 26, batches 1-3): 0.125 µg/mL and 0.25 µg/mL | enzyme activity restored by ZnSO4 (VIM-2; 15 nM impaired VIM-2 from Example 207C spiked with 0-100 μM ZnSO4): 40% | irreversibility of VIM-2 inhibition (VIM-2; purified VIM-2, PD-10 column, EDTA at 100 μM): irreversibly inhibits VIM-2; also recorded: irreversibly inhibited | MIC meropenem + 25 mg/L Example 26 / Example 195 [2]: 0.25 µg/mL | interaction with rH glyoxylase II (rH glyoxylase II): does not interact with rH glyoxylase II | potentiates carbapenems with a factor [3]: 32-256 times | effect of protein binding on inhibitory activity on VIM-2 [4]: protein binding is not affecting the inhibitory activity | reduction of the CFU levels compared to vehicle treatment ([5]; 10-100 mg/kg Example 26 alone, blood and peritoneal fluid): did not result in reduction of the CFU levels | Score at sampling ([5]; Example 26 10 mg/kg s.c. + meropenem 33 mg/kg, mice 5-8): 2 | Score at sampling ([5]; Example 26 10 mg/kg s.c. + vehicle, mice 17-20): 2 | Score at sampling ([5]; Example 26 33 mg/kg s.c. + meropenem 33 mg/kg, mice 9-12): 1 | Score at sampling ([5]; Example 26 33 mg/kg s.c. + vehicle, mice 21-24): 1 | Score at sampling ([5]; Example 26 100 mg/kg s.c. + meropenem 33 mg/kg, mice 13-16): 1 | Score at sampling ([5]; Example 26 100 mg/kg s.c. + vehicle, mice 25-28): 1 | lower CFU levels compared to vehicle treatment ([5]; blood): 3.95-4.38 log10 | lower CFU levels compared to vehicle treatment ([5]; peritoneal fluid): 3.57-3.66 log10 | solution stability (adjuvant activity in MIC studies after storage) [6]: no loss of activity even after 8 months storage time | activity against KPC-producing strains [7]: does not show activity | amplification of the effect of meropenem [8]: > 1000 times | time after which CFU drops to below the limit of detection (LOD) [9]: 5 to 10 h

C[C@@H](N)C(=O)N[C@H](C)C(=O)NCCc1ccc(NC(=O)c2ccc(CN(Cc3ccccn3)Cc3ccccn3)nc2)cc1 [Example 195, N-(4-(2-((R)-2-((R)-2-aminopropanamido)propanamido)ethyl)phenyl)-6-((bis(pyridin-2-ylmethyl)amino)methyl)nicotinamide hydrochloride, reference compound]
MIC meropenem + 25 mg/L Example 26 / Example 195 [2]: 0.25 µg/mL | MIC meropenem + 25 mg/L Example 26 / Example 195 [10]: 0.06 µg/mL | solution stability (adjuvant activity in MIC studies after storage) [6]: a loss of activity was observed after 5 months storage, and after 8 months the activity was absent | MIC meropenem + 25 mg/L Example 26 / Example 195 [11]: 0.06 µg/mL | RF - no of colonies (K. pneumoniae K66-45; MEM 2 mg/L): nc (n.c. = no colonies) | RF - no of colonies (K. pneumoniae K66-45; MEM 4 mg/L): nc (n.c. = no colonies) | RF - no of colonies (K. pneumoniae K66-45; MEM 8 mg/L): nc (n.c. = no colonies)
